Reference: patent publication US12344610B2, “APOL1 inhibitors and methods of use” (Maze Therapeutics, Inc., priority 2022, dated 2025)

Tests used:
[1] = system: HEK293 cells overexpressing APOL1 G2; test: APOL1 G2 HEK293 cell rescue assay (reversal of cell death caused by overexpression of APOL1); format: cell-based; conditions: geometric mean of at least 2 assay runs, † = single assay run
How it was run: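 Each compound tested in duplicate wells on one plate per run, with values usually the geometric mean across at least two runs on different days, occasionally from one run only. Read-out: concentration giving half-maximal rescue of APOL1 G2 overexpression-induced death of HEK293 cells.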

[2] = target: T1, APOL1 G2 (Homo sapiens, UniProt O14791, DEL388-389); test: APOL1-mediated calcium transport (calcium influx) assay, HEK T-REx/GCaMP6f/APOL1 G2 K6.3 cells, FLIPR TETRA; format: cell-based; conditions: prevention of calcium influx; geometric mean of at least 2 assay runs; † = average of a technical replicate from a single assay run
T1 construct: expressed in transfected cells; host or cells: HEK293 T-REx clonal line stably expressing GCaMP6f (HEK T-REx/GCaMP6f/APOL1 G2 K6.3), doxycycline induced
T1 sequence (O14791 with tags, fused parts or gaps DEL388-389): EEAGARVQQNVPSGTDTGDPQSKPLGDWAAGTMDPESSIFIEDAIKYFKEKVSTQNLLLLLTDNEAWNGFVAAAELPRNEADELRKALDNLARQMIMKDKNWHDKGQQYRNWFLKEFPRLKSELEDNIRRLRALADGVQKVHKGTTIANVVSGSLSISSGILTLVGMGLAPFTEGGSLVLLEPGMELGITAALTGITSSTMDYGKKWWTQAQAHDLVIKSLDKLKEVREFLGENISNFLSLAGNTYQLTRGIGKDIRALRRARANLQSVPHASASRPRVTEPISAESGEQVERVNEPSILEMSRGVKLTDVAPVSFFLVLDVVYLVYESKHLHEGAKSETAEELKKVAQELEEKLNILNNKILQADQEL
How it was run: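 A HEK293 T-REx clone stably expressing GCaMP6f had APOL1 G2 induced with doxycycline (20 ng/mL solution added) for 6 h. Cells were then washed into Ca2+-free Tyrode's buffer (pH 7.4) and preincubated with compounds (duplicate 8-point) for 10 min at room temperature. Ca2+ injection to 5 mM final produced FLIPR GCaMP fluorescence, giving AC50 for influx inhibition (geometric mean, ≥2 runs).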

[3] = Homo sapiens, HEK293, HEK293 overexpressing APOL1 G2

CC(c1c(F)cc(OCCN2CCC3(CC2)C(=O)Nc2ccc(C#N)cc23)cc1F)S(C)(=O)=O (single isomer, unassigned) [Compound 139, (R) or (S)-1′-{2-[3,5-difluoro-4-(1-methanesulfonylethyl)phenoxy]ethyl}-2-oxo-1,2-dihydrospiro[indole-3,4′-piperidine]-5-carbonitrile]
EC50 ([1]; HEK293 overexpressing APOL1 G2): 133 nM | AC50 [2]: 1120 nM

CC(C)n1ncc2cc(OCCN3CCC4(CC3)C(=O)Nc3ccc(Cl)cc34)ccc21 [Compound 16, 5-chloro-1′-(2-{[1-(propan-2-yl)-1H-indazol-5-yl]oxy}ethyl)-1,2-dihydrospiro[indole-3,4′-piperidin]-2-one]
EC50 [1, 3]: 112 nM | AC50 [2]: 1160 nM

CS(=O)(=O)C1(c2ccc(OCCN3CCC4(CC3)C(=O)N(CC(F)(F)F)c3ccc(Cl)cc34)cc2)COC1 [Compound 185, 5-chloro-1′-{2-[4-(3-methanesulfonyloxetan-3-yl)phenoxy]ethyl}-1-(2,2,2-trifluoroethyl)-1,2-dihydrospiro[indole-3,4′-piperidin]-2-one]
EC50 [1, 3]: 113 nM | AC50 [2]: 993 nM

CC(C)(C#N)c1ccc(OCCN2CCC3(CC2)C(=O)Nc2ccc(C#N)cc23)cc1 [Compound 157, 1′-{2-[4-(1-cyano-1-methylethyl)phenoxy]ethyl}-2-oxo-1,2-dihydrospiro[indole-3,4′-piperidine]-5-carbonitrile]
EC50 [1, 3]: 50.4 nM | AC50 [2]: 933 nM

CS(=O)(=O)c1ccc(OCCN2CCC3(CC2)C(=O)Nc2ccc(Cl)cc23)cc1Cl [Compound 155, 5-chloro-1′-[2-(3-chloro-4-methanesulfonylphenoxy)ethyl]-1,2-dihydrospiro[indole-3,4′-piperidin]-2-one]
EC50 [1, 3]: 26.2 nM | AC50 [2]: 452 nM

N#Cc1ccc2c(c1)C1(CCN(CCOc3ccc(S(=O)(=O)C(F)F)cc3)CC1)C(=O)N2 [Compound 113, 1′-[2-(4-difluoromethanesulfonylphenoxy)ethyl]-2-oxo-1,2-dihydrospiro[indole-3,4′-piperidine]-5-carbonitrile]
EC50 [1, 3]: 83.6 nM | AC50 [2]: 524 nM
